# From paper PMC11831560, “Development of the Pyrido[2,3-d]pyrimidin-7(8H)-one Scaffold toward Potent and Selective NUAK1 Inhibitors” (ACS Medicinal Chemistry Letters, 2025)
# How the values were obtained:
# Brain protein binding = type: in vitro ADME; settings: mouse brain tissue, read-out: BPB Fu
# Excerpt: All single point assay determinations carried out in duplicate.
# BRSK1 = BRSK1 (Homo sapiens, UniProt Q8TDC3); assay: Kinase panel radiometric filter binding (33P-ATP); type: biochemical; set-up: dose or concentration left out as unconfirmed
# Sequence of BRSK1 (Q8TDC3 whole entry): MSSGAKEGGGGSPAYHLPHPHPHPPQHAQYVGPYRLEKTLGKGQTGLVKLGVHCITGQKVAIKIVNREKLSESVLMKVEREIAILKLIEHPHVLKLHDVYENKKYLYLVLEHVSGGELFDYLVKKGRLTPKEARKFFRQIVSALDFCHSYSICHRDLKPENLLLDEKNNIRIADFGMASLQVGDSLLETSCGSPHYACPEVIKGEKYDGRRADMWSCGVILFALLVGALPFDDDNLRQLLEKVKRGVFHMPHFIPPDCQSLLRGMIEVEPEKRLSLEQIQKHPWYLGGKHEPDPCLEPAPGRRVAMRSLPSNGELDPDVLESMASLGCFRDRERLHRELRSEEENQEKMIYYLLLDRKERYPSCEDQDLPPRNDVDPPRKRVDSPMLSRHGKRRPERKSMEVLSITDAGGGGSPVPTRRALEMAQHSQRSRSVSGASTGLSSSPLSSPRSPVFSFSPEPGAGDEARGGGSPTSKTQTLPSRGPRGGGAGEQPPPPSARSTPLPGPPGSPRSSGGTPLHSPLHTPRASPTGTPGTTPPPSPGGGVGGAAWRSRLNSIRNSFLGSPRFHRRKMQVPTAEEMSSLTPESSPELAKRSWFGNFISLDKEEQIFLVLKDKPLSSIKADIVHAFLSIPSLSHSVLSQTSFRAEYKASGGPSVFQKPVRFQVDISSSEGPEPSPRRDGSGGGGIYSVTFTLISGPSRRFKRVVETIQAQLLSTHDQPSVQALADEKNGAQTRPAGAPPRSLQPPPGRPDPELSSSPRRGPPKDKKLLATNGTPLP
# Procedure: (§1) Table S4: AMPKA kinase activity data (ADP-Glo assay)
# (§2) Compound pIC50 (Fold selectivity
# (§3) Table S5. Kinase selectivity screening for 9 and 24 at 1 µM against a general kinase panel of 140 targets
# (§4) in radiometric filter binding assay using 33P-γ−ATP at the MRC PPU International Centre for Kinase
# (§5) Profiling, University of Dundee. pIC50 values were determined for compounds with <20% activity
# (§6) Kinase activity s.d. pIC50 activity s.d. pIC50
# CAMKKb = CAMKKb (Homo sapiens, UniProt Q96RR4); assay: Kinase panel radiometric filter binding (33P-ATP); type: biochemical; set-up: dose or concentration left out as unconfirmed
# Procedure: as §1, §2, §3, §4, §5, §6
# CK1γ2 = CK1γ2 (Homo sapiens, UniProt P78368); assay: Kinase panel radiometric filter binding (33P-ATP); type: biochemical; set-up: dose or concentration left out as unconfirmed
# Sequence of CK1γ2 (P78368 whole entry): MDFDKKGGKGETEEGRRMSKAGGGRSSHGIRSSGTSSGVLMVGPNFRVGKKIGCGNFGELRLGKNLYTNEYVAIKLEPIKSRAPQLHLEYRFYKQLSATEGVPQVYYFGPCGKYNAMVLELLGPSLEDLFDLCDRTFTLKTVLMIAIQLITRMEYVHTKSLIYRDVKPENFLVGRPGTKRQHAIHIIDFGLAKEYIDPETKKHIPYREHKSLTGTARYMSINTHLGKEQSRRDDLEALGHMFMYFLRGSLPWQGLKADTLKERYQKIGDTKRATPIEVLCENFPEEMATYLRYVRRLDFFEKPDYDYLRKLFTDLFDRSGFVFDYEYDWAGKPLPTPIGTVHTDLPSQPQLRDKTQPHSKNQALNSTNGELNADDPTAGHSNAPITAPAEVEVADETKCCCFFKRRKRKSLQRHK
# Procedure: as §1, §2, §3, §4, §5, §6
# CK1δ = CK1δ (Homo sapiens, UniProt P48730); assay: Kinase panel radiometric filter binding (33P-ATP); type: biochemical; set-up: dose or concentration left out as unconfirmed
# Procedure: as §1, §2, §3, §4, §5, §6
# ERK2 = ERK2 (Homo sapiens, UniProt P28482); assay: Kinase panel radiometric filter binding (33P-ATP); type: biochemical; set-up: dose or concentration left out as unconfirmed
# Procedure: as §1, §2, §3, §4, §5, §6
# ERK8 = ERK8 (Homo sapiens, UniProt Q8TD08); assay: Kinase panel radiometric filter binding (33P-ATP); type: biochemical; set-up: dose or concentration left out as unconfirmed
# Procedure: as §1, §2, §3, §4, §5, §6
# IRAK1 = IRAK1 (Homo sapiens, UniProt P51617); assay: Kinase panel radiometric filter binding (33P-ATP); type: biochemical; set-up: dose or concentration left out as unconfirmed
# Procedure: as §1, §2, §3, §4, §5, §6
# MAPKAP-K2 = MAPKAP-K2 (Homo sapiens, UniProt P49137); assay: Kinase panel radiometric filter binding (33P-ATP); type: biochemical; set-up: dose or concentration left out as unconfirmed
# Procedure: as §1, §2, §3, §4, §5, §6
# MLK1 = MLK1 (Homo sapiens, UniProt P80192); assay: Kinase panel radiometric filter binding (33P-ATP); type: biochemical; set-up: dose or concentration left out as unconfirmed
# Procedure: as §1, §2, §3, §4, §5, §6
# MLK3 = MLK3 (Homo sapiens, UniProt Q16584); assay: Kinase panel radiometric filter binding (33P-ATP); type: biochemical; set-up: dose or concentration left out as unconfirmed
# Procedure: as §1, §2, §3, §4, §5, §6
# MNK2 = MNK2 (Homo sapiens, UniProt Q9HBH9); assay: Kinase panel radiometric filter binding (33P-ATP); type: biochemical; set-up: dose or concentration left out as unconfirmed
# Procedure: as §1, §2, §3, §4, §5, §6
# PKCa = PKCa (Homo sapiens, UniProt P17252); assay: Kinase panel radiometric filter binding (33P-ATP); type: biochemical; set-up: dose or concentration left out as unconfirmed
# Procedure: as §1, §2, §3, §4, §5, §6
# PKCz = PKCz (Homo sapiens, UniProt Q05513); assay: Kinase panel radiometric filter binding (33P-ATP); type: biochemical; set-up: dose or concentration left out as unconfirmed
# Procedure: as §1, §2, §3, §4, §5, §6
# PKCγ = PKCγ (Homo sapiens, UniProt P05129); assay: Kinase panel radiometric filter binding (33P-ATP); type: biochemical; set-up: dose or concentration left out as unconfirmed
# Procedure: as §1, §2, §3, §4, §5, §6
# PKD1 = PKD1 (Homo sapiens, UniProt Q15139); assay: Kinase panel radiometric filter binding (33P-ATP); type: biochemical; set-up: dose or concentration left out as unconfirmed
# Sequence of PKD1 (Q15139 whole entry): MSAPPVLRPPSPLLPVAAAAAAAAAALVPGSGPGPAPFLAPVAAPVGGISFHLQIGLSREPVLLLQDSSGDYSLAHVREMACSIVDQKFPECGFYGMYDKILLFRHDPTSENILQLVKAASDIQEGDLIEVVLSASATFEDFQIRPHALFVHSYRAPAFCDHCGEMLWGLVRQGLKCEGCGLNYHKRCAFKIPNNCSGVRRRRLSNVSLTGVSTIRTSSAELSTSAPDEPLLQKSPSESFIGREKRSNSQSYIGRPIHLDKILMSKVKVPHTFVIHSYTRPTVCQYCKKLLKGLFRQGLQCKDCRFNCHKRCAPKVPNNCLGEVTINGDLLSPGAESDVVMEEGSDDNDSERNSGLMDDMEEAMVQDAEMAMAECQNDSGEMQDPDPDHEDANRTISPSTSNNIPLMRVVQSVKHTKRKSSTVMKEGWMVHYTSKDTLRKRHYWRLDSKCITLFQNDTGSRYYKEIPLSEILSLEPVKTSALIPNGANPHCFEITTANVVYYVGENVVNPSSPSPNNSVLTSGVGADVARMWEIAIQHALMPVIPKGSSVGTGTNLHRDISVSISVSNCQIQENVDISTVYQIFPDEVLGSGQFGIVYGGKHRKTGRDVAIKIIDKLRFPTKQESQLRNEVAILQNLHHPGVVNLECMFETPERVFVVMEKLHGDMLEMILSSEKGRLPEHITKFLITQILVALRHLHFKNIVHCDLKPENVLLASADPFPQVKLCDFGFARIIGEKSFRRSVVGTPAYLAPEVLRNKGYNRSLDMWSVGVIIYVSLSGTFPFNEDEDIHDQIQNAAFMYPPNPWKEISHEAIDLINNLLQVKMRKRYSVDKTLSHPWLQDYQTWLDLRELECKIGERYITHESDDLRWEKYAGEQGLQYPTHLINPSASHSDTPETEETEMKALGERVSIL
# Procedure: as §1, §2, §3, §4, §5, §6
# PRAK = PRAK (Homo sapiens, UniProt Q8IW41); assay: Kinase panel radiometric filter binding (33P-ATP); type: biochemical; set-up: dose or concentration left out as unconfirmed
# Sequence of PRAK (Q8IW41 whole entry): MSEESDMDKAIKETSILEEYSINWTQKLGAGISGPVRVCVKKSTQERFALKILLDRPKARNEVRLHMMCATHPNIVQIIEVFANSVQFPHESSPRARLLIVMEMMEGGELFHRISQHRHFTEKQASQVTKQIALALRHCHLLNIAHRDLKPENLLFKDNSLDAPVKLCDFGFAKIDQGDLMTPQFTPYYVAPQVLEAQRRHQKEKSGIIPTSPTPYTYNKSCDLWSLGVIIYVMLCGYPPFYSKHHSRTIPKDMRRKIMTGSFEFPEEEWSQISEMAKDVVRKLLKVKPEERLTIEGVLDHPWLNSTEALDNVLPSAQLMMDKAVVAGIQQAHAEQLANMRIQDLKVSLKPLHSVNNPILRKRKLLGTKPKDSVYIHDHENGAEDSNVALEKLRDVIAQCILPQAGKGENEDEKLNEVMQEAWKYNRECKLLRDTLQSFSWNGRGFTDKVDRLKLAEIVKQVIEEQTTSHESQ
# Procedure: as §1, §2, §3, §4, §5, §6
# RIPK2 = RIPK2 (Homo sapiens, UniProt O43353); assay: Kinase panel radiometric filter binding (33P-ATP); type: biochemical; set-up: dose or concentration left out as unconfirmed
# Procedure: as §1, §2, §3, §4, §5, §6
# S6K1 = S6K1 (Homo sapiens, UniProt P23443); assay: Kinase panel radiometric filter binding (33P-ATP); type: biochemical; set-up: dose or concentration left out as unconfirmed
# Sequence of S6K1 (P23443 whole entry): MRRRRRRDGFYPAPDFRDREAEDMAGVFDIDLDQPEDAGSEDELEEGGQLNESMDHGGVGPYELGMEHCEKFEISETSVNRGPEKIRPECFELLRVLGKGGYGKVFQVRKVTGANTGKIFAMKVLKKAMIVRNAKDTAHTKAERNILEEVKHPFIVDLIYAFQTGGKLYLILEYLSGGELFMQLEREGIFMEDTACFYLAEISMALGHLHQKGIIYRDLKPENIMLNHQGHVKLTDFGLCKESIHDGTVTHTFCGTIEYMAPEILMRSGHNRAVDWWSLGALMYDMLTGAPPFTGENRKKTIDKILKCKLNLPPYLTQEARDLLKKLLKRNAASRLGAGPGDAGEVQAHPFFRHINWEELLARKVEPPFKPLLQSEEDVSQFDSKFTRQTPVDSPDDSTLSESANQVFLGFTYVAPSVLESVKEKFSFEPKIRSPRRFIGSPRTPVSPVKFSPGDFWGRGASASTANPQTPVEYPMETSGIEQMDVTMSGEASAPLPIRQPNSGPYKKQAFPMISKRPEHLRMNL
# Procedure: as §1, §2, §3, §4, §5, §6
# TESK1 = TESK1 (Homo sapiens, UniProt Q15569); assay: Kinase panel radiometric filter binding (33P-ATP); type: biochemical; set-up: dose or concentration left out as unconfirmed
# Procedure: as §1, §2, §3, §4, §5, §6
# TTBK2 = TTBK2 (Homo sapiens, UniProt Q6IQ55); assay: Kinase panel radiometric filter binding (33P-ATP); type: biochemical; set-up: dose or concentration left out as unconfirmed
# Sequence of TTBK2 (Q6IQ55 whole entry): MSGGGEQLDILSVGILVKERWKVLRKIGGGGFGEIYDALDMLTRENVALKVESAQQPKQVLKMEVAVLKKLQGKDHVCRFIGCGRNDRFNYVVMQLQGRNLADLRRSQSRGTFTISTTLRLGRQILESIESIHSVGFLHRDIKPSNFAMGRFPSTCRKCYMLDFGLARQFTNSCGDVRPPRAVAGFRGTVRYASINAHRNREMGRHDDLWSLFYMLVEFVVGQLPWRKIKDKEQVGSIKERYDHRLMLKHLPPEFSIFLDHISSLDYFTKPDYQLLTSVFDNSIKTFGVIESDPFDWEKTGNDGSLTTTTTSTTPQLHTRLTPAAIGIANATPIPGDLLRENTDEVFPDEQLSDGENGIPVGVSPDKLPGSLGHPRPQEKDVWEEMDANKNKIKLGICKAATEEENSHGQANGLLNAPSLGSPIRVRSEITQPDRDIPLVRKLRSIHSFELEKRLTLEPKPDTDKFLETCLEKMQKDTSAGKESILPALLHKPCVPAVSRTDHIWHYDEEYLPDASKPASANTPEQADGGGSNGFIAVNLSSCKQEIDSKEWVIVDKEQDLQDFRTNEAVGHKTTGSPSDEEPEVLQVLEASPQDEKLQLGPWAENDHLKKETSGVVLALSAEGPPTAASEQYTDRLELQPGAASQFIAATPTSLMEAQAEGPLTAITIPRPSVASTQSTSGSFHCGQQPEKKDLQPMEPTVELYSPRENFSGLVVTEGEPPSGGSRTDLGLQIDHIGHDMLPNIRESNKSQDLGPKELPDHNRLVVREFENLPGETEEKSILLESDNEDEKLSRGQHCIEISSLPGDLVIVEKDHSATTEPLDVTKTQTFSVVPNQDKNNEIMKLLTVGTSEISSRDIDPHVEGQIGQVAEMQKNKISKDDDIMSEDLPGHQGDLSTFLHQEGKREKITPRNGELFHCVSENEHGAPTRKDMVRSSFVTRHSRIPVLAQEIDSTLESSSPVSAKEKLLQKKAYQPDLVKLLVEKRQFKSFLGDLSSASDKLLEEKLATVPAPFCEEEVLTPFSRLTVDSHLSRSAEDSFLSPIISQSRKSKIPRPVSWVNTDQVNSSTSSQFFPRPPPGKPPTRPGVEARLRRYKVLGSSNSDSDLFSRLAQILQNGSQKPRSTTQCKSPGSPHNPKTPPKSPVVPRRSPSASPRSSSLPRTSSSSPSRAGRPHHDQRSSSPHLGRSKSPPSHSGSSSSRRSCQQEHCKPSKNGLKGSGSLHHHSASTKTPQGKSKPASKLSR
# Procedure: as §1, §2, §3, §4, §5, §6
# TBK1 = TBK1 (Homo sapiens, UniProt Q9UHD2); assay: Kinase panel radiometric filter binding (33P-ATP); type: biochemical
# Procedure: as §1, §2, §3, §4, §5, §6
# TLK1 = TLK1 (Homo sapiens, UniProt Q9UKI8); assay: Kinase panel radiometric filter binding (33P-ATP); type: biochemical
# Procedure: as §1, §2, §3, §4, §5, §6
# p38g MAPK = p38g MAPK (Homo sapiens, UniProt P53778); assay: Kinase panel radiometric filter binding (33P-ATP); type: biochemical
# Procedure: as §1, §2, §3, §4, §5, §6
# in vivo = settings: male, CD-1, mouse, ip, 5 mg/kg
# Procedure: (§7) To investigate the effect of increasing mouse microsomal stability on in vivo half-lives, 9, 10 and 24 were coadministered with 3 in a mouse PK cassette (5 mgkg^–1, I.P.) (Table 5).
# ADMET and PK experimental methods
# (§8) Microsomal stability: analysis was performed by Cyprotex Discovery. Briefly, test compounds in
# (§9) microsomes (0.5 mg protein/mL) in the presence of NADPH (1 mM) at 37 °C. Aliquots were taken at
# (§10) generic LC-MS/MS conditions for compound remaining, allowing the determination of the half-life for
# (§11) MDR1-MDCK Permeability (bi-directional): was performed by Cyprotex Discovery. Briefly,
# (§12) compounds were administered at 10 µM (1% DMSO final) to the apical or basolateral side of a
# (§13) confluent monolayer of MDR1- MDCK cells, then incubated at 37 °C for 60 minutes before appearance
# (§14) on the opposite side of the monolayer was determined LC-MS/MS. The efflux ratio (ER) is calculated
# (§15) from the ratio of B-A to A-B permeabilities.
# (§16) Plasma protein binding: was performed by ChemPartner Co. Ltd. Briefly, compounds in DMSO (1
# (§17) µM, 0.2% DMSO final) were added to mouse plasma or brain tissue and dialysed against buffer for 5
# (§18) hrs at 37 °C. The compound concentration in each of the plasma and buffer compartments was
# (§19) determined by mass spectrometry and used to calculate the percentage compound bound.
# (§20) Pharmacokinetic analysis: was performed by ChemPartner Co. Ltd. Male CD-1 mice (N=3 per
# (§21) timepoint) were intraperitoneally dosed at 5 mg/kg, as a cassette of five compounds, formulated in 10%
# (§22) DMSO, 10% Solutol HS 15, 80% (50 mM citrate buffer pH3.0) at 0.5 mg/mL. At the designated time
# (§23) points a blood sample was collected from the facial vein into K2EDTA tubes, and plasma separated by
# (§24) centrifugation. Mice were euthanised by CO2 inhalation and brains were dissected and homogenised.
# (§25) Compound levels were quantified by LC-MS/MS and PK parameters estimated by a non-compartmental
# model using WinNonlin 8.2.
# NUAK1 = target: T1, NUAK1 (Homo sapiens, UniProt O60285); assay: Kinase panel radiometric filter binding (33P-ATP); type: biochemical; set-up: purchased MRC PPU; dose or concentration left out as unconfirmed
# T1 sequence (O60285 1-661): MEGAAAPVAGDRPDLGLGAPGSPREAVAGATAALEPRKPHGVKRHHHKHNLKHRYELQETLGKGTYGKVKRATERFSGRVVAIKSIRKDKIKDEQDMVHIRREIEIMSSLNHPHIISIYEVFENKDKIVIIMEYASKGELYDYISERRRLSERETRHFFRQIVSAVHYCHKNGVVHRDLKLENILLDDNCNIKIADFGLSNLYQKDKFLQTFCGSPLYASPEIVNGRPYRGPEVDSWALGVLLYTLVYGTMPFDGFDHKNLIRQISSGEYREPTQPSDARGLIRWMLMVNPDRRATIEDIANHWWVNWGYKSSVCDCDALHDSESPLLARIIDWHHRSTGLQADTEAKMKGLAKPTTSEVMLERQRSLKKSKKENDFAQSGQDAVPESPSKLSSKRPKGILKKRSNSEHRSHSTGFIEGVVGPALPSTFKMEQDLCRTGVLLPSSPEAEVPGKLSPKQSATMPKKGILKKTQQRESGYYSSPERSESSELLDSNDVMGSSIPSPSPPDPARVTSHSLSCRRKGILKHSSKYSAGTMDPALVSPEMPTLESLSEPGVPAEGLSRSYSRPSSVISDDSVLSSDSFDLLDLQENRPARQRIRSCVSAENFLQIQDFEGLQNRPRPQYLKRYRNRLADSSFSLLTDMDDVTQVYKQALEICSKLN
# Procedure: as §1, §2, §3, §4, §5, §6
# [1] = Mouse PK cassette (5 mg/kg, I.P.); settings: for Kp uu at 0.5 h: brain / plasma (unbound); for Kp at 0.5 h: brain / plasma; for AUCinf / Plasma t1/2: mouse, I.P., cassette
# Procedure: as §7
# ADMET and PK experimental methods
# as §8, §9, §10, §11, §12, §13, §14, §15, §16, §17, §18, §19, §20, §21, §22, §23, §24, §25
# model using WinNonlin 8.2.
Structure (SMILES),"fraction unbound at 5 h, 1 µM (Brain protein binding)",% activity remaining (BRSK1) [%],% activity remaining (CAMKKb) [%],% activity remaining (CK1γ2) [%],% activity remaining (CK1δ) [%],% activity remaining (ERK2) [%],% activity remaining (ERK8) [%],% activity remaining (IRAK1) [%],% activity remaining (MAPKAP-K2) [%],% activity remaining (MLK1) [%],% activity remaining (MLK3) [%],% activity remaining (MNK2) [%],% activity remaining (PKCa) [%],% activity remaining (PKCz) [%],concentration at 30 min (in vivo) [ng/mL],concentration at 2 h (in vivo) [ng/mL],"Kp uu at 0.5 h ([1]; male, CD-1, mouse, ip)","Kp at 0.5 h ([1]; male, CD-1, mouse, ip)",AUCinf [1] [ng·h/mL],Plasma t1/2 [1] [min],other results
CC(C)N1CCN(c2ccc(Nc3ncc4ccn(CC5CCCO5)c4n3)cc2)CC1 (centres unmarked) [Compound 27],0.039,–,–,–,–,–,–,–,–,–,–,–,–,–,–,–,–,–,–,–,–
Cc1cc(=O)n(C2CCCC2)c2nc(Nc3ccc(N4CC5CC(C4)N5C)cc3)ncc12 [Compound 9],0.006,81,86,34,66,93,47,75,110,21,43,56,86,110,573,176,0.4,0.8,1358,54,% activity remaining (PKCγ): 72%; % activity remaining (PKD1): 20%; % activity remaining (PRAK): 99%; % activity remaining (RIPK2): 78%; % activity remaining (S6K1): 85%; % activity remaining (TESK1): 96%; % activity remaining (TTBK2): 97%; % activity remaining (TBK1): 66%; % activity remaining (TLK1): 59%; % activity remaining (p38g MAPK): 97%; % activity remaining (NUAK1): 5%
"CN1CCN(c2ccc(Nc3ncc4cc(C#N)c(=O)n(C5CCCC5)c4n3)cc2)CC1 [Compound 3, Narazaciclib, reference compound]",0.012,–,–,–,–,–,–,–,–,–,–,–,–,–,–,–,0.29,1.9,897,54,"concentration at 30 min ([1]; male, CD-1, mouse, brain, ip): 1160 ng/mL; concentration at 2 h ([1]; male, CD-1, mouse, brain, ip): 181 ng/mL"
CN1C2CC1CN(c1ccc(Nc3ncc4cc(C#N)c(=O)n(C5CCCC5)c4n3)cc1)C2 [Compound 10],0.01,–,–,–,–,–,–,–,–,–,–,–,–,–,293,146,0.37,0.7,1131,66,–
CN1C2CC1CN(c1ccc(Nc3ncc4ccn(CC5CCOCC5)c4n3)cc1)C2 [Compound 24],0.09,75,43,107,93,114,76,71,95,33,91,89,96,118,220,26.9,0.52,0.9,365,42,% activity remaining (PKCγ): 81%; % activity remaining (PKD1): 54%; % activity remaining (PRAK): 83%; % activity remaining (RIPK2): 73%; % activity remaining (S6K1): 78%; % activity remaining (TESK1): 94%; % activity remaining (TTBK2): 96%; % activity remaining (TBK1): 41%; % activity remaining (TLK1): 86%; % activity remaining (p38g MAPK): 92%; % activity remaining (NUAK1): 14%
